In PMC11467737, “Osteocalcin binds to a GPRC6A Venus fly trap allosteric site to positively modulate GPRC6A signaling” (FASEB BioAdvances, 2024):
Where a chain is given by its changes, count along the chain named. Bridge positions count the residues as written; N and C are the ends. Ends that are not written are not given here.

What was measured:
K352E hGPRC6A = target: T1, K352E hGPRC6A (Homo sapiens, UniProt Q5T6X5, K352E); assay: cAMP accumulation in HEK-293 cells transfected with K352E hGPRC6A; assay type: cell-based; conditions: K352E mutant; for cAMP accumulation by Ocn small fragments: fragment at 20 nM, Figure 6C
T1 construct: expressed in transfected cells; host or cells: HEK-293, pcDNA3
T1 sequence (Q5T6X5 19-926 K352E): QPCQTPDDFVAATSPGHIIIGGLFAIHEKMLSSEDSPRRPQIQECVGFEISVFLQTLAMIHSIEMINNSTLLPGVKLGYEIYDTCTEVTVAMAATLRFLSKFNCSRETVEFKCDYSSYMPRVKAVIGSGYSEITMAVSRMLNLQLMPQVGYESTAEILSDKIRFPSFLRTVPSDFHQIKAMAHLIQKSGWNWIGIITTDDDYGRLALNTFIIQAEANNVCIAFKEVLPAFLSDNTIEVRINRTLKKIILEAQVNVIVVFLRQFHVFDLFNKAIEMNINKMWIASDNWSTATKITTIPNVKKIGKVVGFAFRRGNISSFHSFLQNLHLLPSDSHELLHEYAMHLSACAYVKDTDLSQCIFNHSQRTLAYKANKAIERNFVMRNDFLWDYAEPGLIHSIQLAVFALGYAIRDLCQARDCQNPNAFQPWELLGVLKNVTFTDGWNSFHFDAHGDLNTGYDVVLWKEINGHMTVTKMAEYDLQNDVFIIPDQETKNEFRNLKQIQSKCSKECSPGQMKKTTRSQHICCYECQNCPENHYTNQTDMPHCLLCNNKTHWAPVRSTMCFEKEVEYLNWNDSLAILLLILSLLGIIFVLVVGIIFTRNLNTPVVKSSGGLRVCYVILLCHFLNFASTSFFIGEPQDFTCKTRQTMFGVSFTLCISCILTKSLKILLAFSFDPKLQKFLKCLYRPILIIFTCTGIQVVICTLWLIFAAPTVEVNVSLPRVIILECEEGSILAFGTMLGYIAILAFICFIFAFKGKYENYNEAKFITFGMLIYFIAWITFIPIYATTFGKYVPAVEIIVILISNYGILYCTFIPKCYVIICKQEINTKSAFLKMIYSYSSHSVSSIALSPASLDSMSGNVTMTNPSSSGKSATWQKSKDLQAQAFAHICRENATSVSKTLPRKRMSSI
Protocol: (§1) HEK‐293 transfected with human GPRC6A isoform cDNA plasmids cells (10^5 cells/well)[30] were cultured in 24‐well plates in DMEM supplemented with 10% fetal bovine serum and 1% penicillin/streptomycin (100 U/mL of penicillin and 100 μg/mL of streptomycin) for 48 h followed by 4 h incubation in DMEM/F12 containing 0.1% BSA and 0.5 mM IBMX to achieve quiescence and preventing cAMP degradation. Quiescent cells were treated with vehicle control, various ligands at concentration as indicated for 40 min at 37°C. Then, the reaction was stopped, and the cells lysed with 0.5 mL 0.1 N HCl. cAMP levels were measured by using Cyclic AMP EIA kit (Cayman Chemical; Ann Arbor, MA, USA) following the manufacture's protocol.
In‐vitro mutagenesis by PCR‐mediated recombination QuikChange II XL Site‐Directed Mutagenesis Kit (Agilent) was performed using the cDNA of human GPRC6A cloned in the vector pcDNA3 (Invitrogen) as a template. The primer sets are as follows. K352E.sen: […]; K352E.antisen: […]; H355P.sen: […]; H355P.antisen: […]; K352E/H355P.sen: […]; and K352E/H355P.antisen: […]. All mutants were confirmed by sequencing.

human GPRC6A isoform 1 = target: T2, human GPRC6A isoform 1 (Homo sapiens, UniProt Q5T6X5); assay: cAMP accumulation in HEK-293 cells transfected with human GPRC6A isoform 1 (wild-type, full length); assay type: cell-based; conditions: for cAMP accumulation by synthesized human Ocn fragments: fragments at 20 nM, Figure 3C / S5C
T2 construct: expressed in transfected cells; host or cells: HEK-293, pcDNA3-hGPRC6A
T2 sequence (Q5T6X5 19-926): T1 sequence (Q5T6X5 19-926 K352E) with E334K
Protocol: as §1

[1] = HEK-293 with pcDNA3-hGPRC6A, 40 min

Row | Substance | cAMP accumulation, dose response of full-length Ocn, versus wild-type receptor (K352E hGPRC6A; Figure 6A) | cAMP accumulation, dose response of full-length Ocn (human GPRC6A isoform 1; WT hGPRC6A, Figure 6A) | Ocn-induced cAMP accumulation, dose response (human GPRC6A isoform 1; isoform 1, Ocn 1.73, 8.65, 17.3, 26.0 nM, 1 mM calcium, 40 min, Figure 2C) | cAMP accumulation by Ocn small fragments (K352E hGPRC6A) | cAMP accumulation by synthesized human Ocn fragments (human GPRC6A isoform 1; [1]) | Potency compared to full-length Ocn 1–49, cAMP dose response (human GPRC6A isoform 1; HEK-293 with pcDNA3-hGPRC6A, Figure S5A)
1 | osteocalcin (YLYQWLGAPVPYPDPLEPRREVCELNPDCDELADHIGFQEAYRRFYGPV; not fully specified; ends and bridges not checked; UniProt P02818 52-100, looked up) [Ocn 1–49, full human Ocn (49 aa) synthesized by BioMatik; methods also describe decarboxylated Ocn purified from bovine tibial bone, reference compound] | significantly decreased | dose‐dependently stimulated | activated GPRC6A isoform 1 in a dose dependent manner |  |  | 
2 | RFYGPV [Ocn 44–49, synthesized human Ocn C‐terminal hexapeptide] |  |  |  | significantly attenuated | high activity | 
3 | REVCELNPDC (disulfide 4-10 (inferred)) [Ocn 20–29, synthesized human Ocn decapeptide fragment located in the middle of the protein] |  |  |  | no response | high activity | greater potency
